Assay [1] concerns the target CDK12 wt/CycK (Homo sapiens (Human), UniProt Q9NYV4). Kind of assay: Radiometric protein kinase assay (33PanQinase), Assay Condition A (thiol containing). Format: biochemical. The settings on record: thiol containing (1.2 mM DTT), ATP 0.3 μM. The gist of the method:
(§1)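 Recombinant human kinases assayed radiometrically (33PanQinase) with 33P-ATP incorporation into substrate, 60 min at 30° C, thiol-containing buffer, 1% DMSO final. Ten concentrations from 1×10^−04M to 3×10^−09M tested in singlicate. Residual activity normalized to no-enzyme and no-inhibitor controls; IC50 by least-squares fit.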

In assay [2] the target is CDK2/CycA2 (Homo sapiens (Human), UniProt P24941). Described as above. In kind it is biochemical. The conditions noted are these: thiol containing (1.2 mM DTT), ATP 0.3 μM. The gist of the method: as §1
Assay [3] has as its target CDK7/CycH/MAT1 (Homo sapiens (Human), UniProt P50613). The description is as above. In kind it is biochemical. The conditions noted are these: thiol containing (1.2 mM DTT), ATP 3.0 μM. In a few lines: as §1
Assay [4] deals with CDK12 (Homo sapiens (Human), UniProt Q9NYV4). Kind of assay: Radiometric protein kinase assay (33PanQinase), Assay Condition B (thiol-free). The conditions noted are these: thiol-free (1 mM TCEP). In kind it is biochemical. How it is done:
The IC50 profile of compounds was determined using one protein kinase in a customized, thiol free assay. […] Prior to testing, the 1×10^−03 M stock solutions in column 2 of the master plates were subjected to a serial, semi-logarithmic dilution using 100% DMSO as a solvent. […] Column 1 and 7 were filled with 100% DMSO as controls. Subsequently, 2×10 microliter from each well of the serial diluted copy plates were aliquoted with a 96 channel pipettor into two identical sets of “compound dilution plates”. All plates were barcoded for automated identification and tracking purposes. […] All compounds were stored as powder until being solubilized in DMSO. Solubilized compounds were stored as 1×10^−02M/100% DMSO stock solutions. Prior to the assay process, 90 microliters of H2O were added to each well of a set of compound dilution plates. To minimize potential precipitation, the H2O was added to each plate only a few minutes before the transfer of the compound solutions into the assay plates. Each plate was shaken thoroughly, resulting in compound dilution plates with a final of 10% DMSO. For each assay, 5 microliters of solution from each well of the compound dilution plates/10% DMSO were transferred into the assay plate. The final volume of the assay was 50 μl. All compounds were tested at 10 final assay concentrations in the range from 1×10^−05M to 3×10^−10 M, in singlicate. The final DMSO concentration in the reaction cocktails was 1% in all cases. […] This was done so there would be no interference with the key cysteines in the proteins of interest.
For data analysis, the median value of the counts in column 1 (n=8) of each assay plate was defined as “low control”. This value reflects unspecific binding of radioactivity to the plate in the absence of a protein kinase but in the presence of the substrate. The median value of the counts in column 7 of each assay plate (n=8) was taken as the “high control”, i.e. full activity in the absence of any inhibitor. The difference between high and low control was taken as 100% activity. As part of the data evaluation the low control value from a particular plate was subtracted from the high control value as well as from all 80 “compound values” of the corresponding plate. The residual activity (in %) for each well of a particular plate was calculated by using the following formula: Res. Activity (%)=100×[(cpm of compound−low control)/(high control−low control)]
The fitting method used was a least-squares fit.

Assay [5] concerns the target CDK2 (Homo sapiens (Human), UniProt P24941). Described as above. In kind it is biochemical. The conditions noted are these: thiol-free (1 mM TCEP). Here is the method: The IC50 profile of compounds was determined using one protein kinase in a customized, thiol free assay. […] Prior to testing, the 1×10^−03 M stock solutions in column 2 of the master plates were subjected to a serial, semi-logarithmic dilution using 100% DMSO as a solvent. […] Column 1 and 7 were filled with 100% DMSO as controls. Subsequently, 2×10 microliter from each well of the serial diluted copy plates were aliquoted with a 96 channel pipettor into two identical sets of “compound dilution plates”. All plates were barcoded for automated identification and tracking purposes. […] All compounds were stored as powder until being solubilized in DMSO. Solubilized compounds were stored as 1×10^−02M/100% DMSO stock solutions. Prior to the assay process, 90 microliters of H2O were added to each well of a set of compound dilution plates. To minimize potential precipitation, the H2O was added to each plate only a few minutes before the transfer of the compound solutions into the assay plates. Each plate was shaken thoroughly, resulting in compound dilution plates with a final of 10% DMSO. For each assay, 5 microliters of solution from each well of the compound dilution plates/10% DMSO were transferred into the assay plate. The final volume of the assay was 50 μl. All compounds were tested at 10 final assay concentrations in the range from 1×10^−05M to 3×10^−10 M, in singlicate. The final DMSO concentration in the reaction cocktails was 1% in all cases. […]
For data analysis, the median value of the counts in column 1 (n=8) of each assay plate was defined as “low control”. This value reflects unspecific binding of radioactivity to the plate in the absence of a protein kinase but in the presence of the substrate. […] The residual activity (in %) for each well of a particular plate was calculated by using the following formula: Res. Activity (%)=100×[(cpm of compound−low control)/(high control−low control)]
The residual activities for each concentration and the compound IC50 values were calculated using Quattro Workflow V3.1.1 (Quattro Research GmbH, Munich, Germany; www.quattro-research.com). […]

For assay [6], the system named is panel of 1,151 cancer cell lines. The conditions noted are these: in 52% of a panel of 1,151 cancer cell lines (Kwiatkowski, 2014); cited from earlier work.

Chain of CDK12 (Q9NYV4 whole entry): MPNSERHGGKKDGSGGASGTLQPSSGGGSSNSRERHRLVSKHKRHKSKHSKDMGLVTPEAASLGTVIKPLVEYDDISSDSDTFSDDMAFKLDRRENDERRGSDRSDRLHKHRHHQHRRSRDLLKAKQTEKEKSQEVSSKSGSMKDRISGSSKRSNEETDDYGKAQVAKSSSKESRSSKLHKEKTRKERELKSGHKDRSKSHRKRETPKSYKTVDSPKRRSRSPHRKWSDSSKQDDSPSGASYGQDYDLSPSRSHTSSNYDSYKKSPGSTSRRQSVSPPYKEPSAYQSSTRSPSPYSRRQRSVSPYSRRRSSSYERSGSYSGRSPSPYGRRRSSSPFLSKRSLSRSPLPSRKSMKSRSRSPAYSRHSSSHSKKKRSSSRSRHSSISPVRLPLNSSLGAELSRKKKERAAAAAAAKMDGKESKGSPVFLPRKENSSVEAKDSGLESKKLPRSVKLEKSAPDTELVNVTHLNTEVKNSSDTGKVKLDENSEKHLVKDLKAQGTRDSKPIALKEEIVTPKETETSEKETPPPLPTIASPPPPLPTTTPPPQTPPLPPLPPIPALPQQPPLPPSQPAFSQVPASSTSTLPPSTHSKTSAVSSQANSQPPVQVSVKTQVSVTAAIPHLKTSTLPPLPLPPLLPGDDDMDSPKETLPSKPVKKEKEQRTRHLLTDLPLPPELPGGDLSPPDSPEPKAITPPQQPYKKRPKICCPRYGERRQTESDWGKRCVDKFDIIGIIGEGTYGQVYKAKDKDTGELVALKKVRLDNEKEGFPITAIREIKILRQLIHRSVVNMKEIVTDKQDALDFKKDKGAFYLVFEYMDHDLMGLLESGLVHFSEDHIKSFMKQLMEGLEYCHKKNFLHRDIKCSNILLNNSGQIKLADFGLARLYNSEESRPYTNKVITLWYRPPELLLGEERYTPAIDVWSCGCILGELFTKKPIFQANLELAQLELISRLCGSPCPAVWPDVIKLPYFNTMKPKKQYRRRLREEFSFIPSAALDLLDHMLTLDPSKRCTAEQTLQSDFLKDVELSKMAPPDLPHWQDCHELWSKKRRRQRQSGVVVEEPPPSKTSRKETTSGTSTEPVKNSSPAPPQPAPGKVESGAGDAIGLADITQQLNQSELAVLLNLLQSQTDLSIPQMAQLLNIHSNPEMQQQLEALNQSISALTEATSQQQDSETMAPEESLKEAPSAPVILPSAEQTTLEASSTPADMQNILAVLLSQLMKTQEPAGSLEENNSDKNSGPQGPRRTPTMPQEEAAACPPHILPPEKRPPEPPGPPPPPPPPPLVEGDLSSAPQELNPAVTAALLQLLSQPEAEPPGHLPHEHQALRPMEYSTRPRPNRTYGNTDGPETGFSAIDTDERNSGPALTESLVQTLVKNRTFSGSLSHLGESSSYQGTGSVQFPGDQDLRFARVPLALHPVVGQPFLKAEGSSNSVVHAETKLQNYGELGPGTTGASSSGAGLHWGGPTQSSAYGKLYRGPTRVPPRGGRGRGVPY
Chain of CDK12 (O75909 whole entry partner): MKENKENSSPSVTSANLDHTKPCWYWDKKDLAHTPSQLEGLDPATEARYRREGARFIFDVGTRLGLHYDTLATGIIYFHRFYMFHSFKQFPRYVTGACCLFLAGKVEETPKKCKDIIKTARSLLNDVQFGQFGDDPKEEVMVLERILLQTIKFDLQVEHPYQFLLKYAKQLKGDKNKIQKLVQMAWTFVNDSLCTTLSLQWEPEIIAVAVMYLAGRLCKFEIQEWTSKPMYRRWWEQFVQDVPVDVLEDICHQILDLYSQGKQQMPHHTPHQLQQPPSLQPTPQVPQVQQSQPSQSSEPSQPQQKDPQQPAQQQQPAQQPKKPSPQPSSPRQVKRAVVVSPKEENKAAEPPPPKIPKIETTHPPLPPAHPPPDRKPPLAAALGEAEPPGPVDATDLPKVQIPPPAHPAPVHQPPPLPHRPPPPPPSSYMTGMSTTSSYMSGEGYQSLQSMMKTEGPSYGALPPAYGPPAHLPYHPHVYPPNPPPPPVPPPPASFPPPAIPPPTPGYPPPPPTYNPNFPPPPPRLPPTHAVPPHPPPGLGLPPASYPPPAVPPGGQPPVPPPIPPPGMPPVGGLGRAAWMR
Chain of CDK12 wt/CycK (Q9NYV4 whole entry): as the sequence (Q9NYV4 whole entry) above
Chain of CDK12 wt/CycK (O75909 whole entry partner): as the sequence (O75909 whole entry partner) above
Chain of CDK7/CycH/MAT1 (P50613 whole entry): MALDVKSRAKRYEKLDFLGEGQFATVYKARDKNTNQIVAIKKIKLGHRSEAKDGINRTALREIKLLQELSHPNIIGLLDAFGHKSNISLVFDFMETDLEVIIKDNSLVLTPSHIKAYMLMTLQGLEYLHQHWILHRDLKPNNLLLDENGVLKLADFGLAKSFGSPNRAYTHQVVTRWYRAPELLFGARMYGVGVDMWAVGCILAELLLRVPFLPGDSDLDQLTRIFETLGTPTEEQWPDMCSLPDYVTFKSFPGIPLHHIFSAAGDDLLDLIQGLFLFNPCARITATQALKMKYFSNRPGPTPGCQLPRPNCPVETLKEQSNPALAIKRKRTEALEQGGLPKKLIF
Chain of CDK7/CycH/MAT1 (P51946 whole entry partner): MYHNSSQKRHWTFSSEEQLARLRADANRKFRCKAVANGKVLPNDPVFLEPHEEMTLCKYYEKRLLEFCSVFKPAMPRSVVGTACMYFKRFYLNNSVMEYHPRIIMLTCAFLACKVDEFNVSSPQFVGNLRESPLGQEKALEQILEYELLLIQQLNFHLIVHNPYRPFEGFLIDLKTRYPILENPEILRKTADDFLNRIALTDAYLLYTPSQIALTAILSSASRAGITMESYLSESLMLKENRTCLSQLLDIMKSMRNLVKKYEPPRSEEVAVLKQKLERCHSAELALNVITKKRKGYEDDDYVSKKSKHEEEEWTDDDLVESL
Chain of CDK7/CycH/MAT1 (P51948 whole entry partner): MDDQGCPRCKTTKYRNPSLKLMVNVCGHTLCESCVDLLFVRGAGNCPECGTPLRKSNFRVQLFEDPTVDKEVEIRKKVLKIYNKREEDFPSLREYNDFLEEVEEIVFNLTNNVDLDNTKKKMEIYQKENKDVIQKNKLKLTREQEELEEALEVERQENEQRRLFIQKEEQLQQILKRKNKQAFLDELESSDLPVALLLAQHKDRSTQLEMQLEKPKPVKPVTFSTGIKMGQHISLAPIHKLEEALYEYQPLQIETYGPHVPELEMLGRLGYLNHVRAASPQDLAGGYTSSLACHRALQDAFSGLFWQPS

Consider `C=CC(=O)Nc1ccc(C(=O)N2CC[C@@H](Nc3ncc4ccccc4n3)C2)cc1C` [Example 72, (R)—N-(2-methyl-4-(3-(quinazolin-2-ylamino)pyrrolidine-1-carbonyl)phenyl)acrylamide], for which the half-maximal inhibitory concentration (IC50) (in general, the concentration needed to halve the response being measured) in assay [1] is at most 100 nM; in assay [2], 1 to 10 µM; in assay [3], 1 to 10 µM; in assay [4], under 100 nM; in assay [5], 1 to 10 µM.
As for `CN(C)C/C=C/C(=O)Nc1ccc(C(=O)Nc2cccc(Nc3ncc(Cl)c(-c4c[nH]c5ccccc45)n3)c2)cc1` [THZ1], in assay [6], the IC50 is under 200 nM.

(Values after patent publication US11447493B2 (Kinnate Biopharma Inc., priority 2018, dated 2022).)
